Measurements reported in US10961276B2, “Universal antivenom” (CAMRIS International, Inc., priority 2017, dated 2021).
“Also recorded” adds a separate entry of the source.

Test system: PLA2 of five major snake venoms in the U.S. (all major North American crotalid venoms)
Assay: Cross-species anti-PLA2 activity of phage clone
Assay type: biochemical
Conditions: five major snake venoms in the U.S. (FIG. 4)
Protocol: Analysis of PLAz activity was conducted using the EnzChek® PLAz Assay Kit (Thermo Fisher Scientific, Waltham, Mass.). Individual phage clones were standardized to […] and diluted in log steps. Diluted phages were incubated with 4.88 μg/ml Western Cottonmouth venom for 30 minutes at RT. Fluorescence emission spectra (excitation at 485 nm, emission at 528 nm) was measured for 20 minutes at 1.0 minute intervals to monitor the reaction. PLA2 activity was determined by comparing the phage inhibited venom to uninhibited venom controls.
Originally consensus peptide for panning target was designed with ˜95% homology of all major North American crotalid PLA2. This cross-species reactivity of the selected phage clone is the best evidence for the potential development of a universal antivenom using phage display technique.

KLIHGNGVMDEG [Ph.D.-12-7]
cross-species anti-PLA2 activities: cross-species anti-PLA2 activity; also recorded: showed anti-PLA2 activities across all major North American crotalid venoms
